Reference: patent US20050245563A1 (Millennium Pharmaceuticals, Inc., priority 2003, published 2005)
Counter-ions that a name gives are not always drawn.

biological target: T1, human Chk1 (GST-Chk1) (Homo sapiens, UniProt O14757); test: Chk1 DELFIA kinase assay (2 nM GST-Chk1, 600 μM ATP); format: biochemical; details: Biotin-GLYRSPSMPEN-amide substrate
T1 construct: made in house; host or cells: insect cells (baculovirus, Bac-to-Bac)
T1 sequence (O14757 1-476): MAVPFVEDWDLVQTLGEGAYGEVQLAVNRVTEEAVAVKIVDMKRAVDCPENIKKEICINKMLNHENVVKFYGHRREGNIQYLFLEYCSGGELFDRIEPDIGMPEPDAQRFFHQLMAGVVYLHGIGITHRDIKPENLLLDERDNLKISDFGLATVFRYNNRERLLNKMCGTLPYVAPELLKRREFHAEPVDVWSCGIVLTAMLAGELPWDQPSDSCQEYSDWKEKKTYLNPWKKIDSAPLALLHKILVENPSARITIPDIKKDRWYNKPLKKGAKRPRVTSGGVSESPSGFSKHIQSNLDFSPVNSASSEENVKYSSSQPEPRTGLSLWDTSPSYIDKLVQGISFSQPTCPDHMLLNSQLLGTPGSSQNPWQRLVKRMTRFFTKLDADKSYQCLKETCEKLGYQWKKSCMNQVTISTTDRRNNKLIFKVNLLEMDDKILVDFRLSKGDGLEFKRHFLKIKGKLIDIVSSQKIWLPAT
How it was run: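 Enzyme is N-terminal GST-Chk1 from baculovirus/insect cells, assayed with 1 μM biotin-GLYRSPSMPEN-amide in pH 7.5 Tris buffer, 4% DMSO and 10 mM MgCl2 for 50 min at room temperature. EDTA-stopped reactions were captured on NeutrAvidin. Phospho-peptide was detected by anti-phospho-Ser216-Cdc25c antibody with europium-labeled secondary and time-resolved fluorescence.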

SMILES | IC50
CCCc1ccc2c(c1)c1n[nH]c(C)c1c(=O)n2CCCN [Example 302, 5-(3-Amino-propyl)-3-methyl-8-propyl-2,5-dihydro-pyrazolo[4,3-c]quinolin4-one] | < 1000 nM
C#Cc1ccc2c(c1)c1n[nH]c(C)c1c(=O)n2C[C@H]1CCCNC1 [Example 303, 8-Ethynyl-3-methyl-5-piperidin-3-ylmethyl-2,5-dihydro-pyrazolo[4,3-c]quinolin-4-one] | < 1000 nM
C#Cc1ccc2c(c1)c1n[nH]c(CC)c1c(=O)n2CCCNC [Example 304, 8-Ethynyl-3-ethyl-5-(3-methylamino-propyl)-2,5-dihydro-pyrazolo[4,3-c]quinolin-4-one] | < 1000 nM
Cc1[nH]nc2c1c(=O)n(CCCN)c1ccc(-c3ccc(C#N)cc3)cc21 [Example 306, 4-[5-(3-Amino-propyl)-3-methyl-4-oxo-4,5-dihydro-2H-pyrazolo[4,3-c]quinolin-8-yl]-benzonitrile] | < 1000 nM
Cc1[nH]nc2c1c(=O)n(CCCN)c1ccc(-c3ccc(N(C)C)cc3)cc21 [Example 307, 5-(3-Amino-propyl)-8-(4-dimethylamino-phenyl)-3-methyl-2,5-dihydro-pyrazolo [4,3-c]quinolin-4-one] | < 1000 nM
Cc1[nH]nc2c1c(=O)n(CCCN)c1ccc(-c3ccoc3)cc21 [Example 309, 5-(3-Amino-propyl)-8-furan-3-yl-3-methyl-2,5-dihydro-pyrazolo[4,3-c]quinolin-4-one] | < 1000 nM
Cc1[nH]nc2c1c(=O)n(CCCN)c1ccc(N3CCCC3)cc21 [Example 310, 5-(3-Amino-propyl)-3-methyl-8-pyrrolidin-1-yl-2,5-dihydro-pyrazolo[4,3-c]quinolin-4-one] | < 1000 nM
CCCOCCc1[nH]nc2c1c(=O)n(CCCN)c1ccc(Cl)cc21 [Example 321, 5-(3-Amino-propyl)-8-chloro-3-(2-propoxy-ethyl)-2,5-dihydro-pyrazolo[4,3-c]quinolin-4-one] | < 1000 nM
CCCCOCCc1[nH]nc2c1c(=O)n(CCCN)c1ccc(Cl)cc21 [Example 322, 5-(3-Amino-propyl)-3-(2-butoxy-ethyl)-8-chloro-2,5-dihydro-pyrazolo[4,3-c]quinolin-4-one] | < 1000 nM
CCc1[nH]nc2c1c(=O)n(CCCN)c1ccc(CCCN3CCCC3)cc21 [Example 330, 5-(3-Amino-propyl)-3-ethyl-8-(3-pyrrolidin-1-yl-propyl)-2,5-dihydro-pyrazolo[4,3-c]quinolin-4-one] | < 1000 nM
CCc1[nH]nc2c1c(=O)n(CCCNC)c1ccc(Cl)cc21 [Example 331, 8-Chloro-3-ethyl-5-(3-methylamino-propyl)-2,5-dihydro-pyrazolo[4,3-c]quinolin4-one] | < 1000 nM
Cc1[nH]nc2c1c(=O)n(CCCNC(=O)c1ccc(Cl)cc1)c1ccc(C#CCN3CCCC3)cc21 [Example 332, 4-Chloro-N-{3-[3-methyl-4-oxo-8-(3-pyrrolidin-1-yl-prop-1-ynyl)-2,4-dihydro-pyrazolo[4,3-c]quinolin-5-yl]-propyl}-benzamide] | < 1000 nM
Cc1[nH]nc2c1c(=O)n(CCCNC(=O)c1ccc(Cl)cc1)c1ccc(CCCN3CCCC3)cc21 [Example 333] | < 1000 nM
Cc1[nH]nc2c1c(=O)n(CCCN)c1cc(C(=O)NCCN3CCCC3)ccc21 [Example 336, 5-(3-Amino-propyl)-3-methyl-4-oxo-4,5-dihydro-2H-pyrazolo[4,3-c]quinolin-7-carboxylic acid (2-pyrrolidin-1-yl-ethyl)-amide] | < 1000 nM
Cc1[nH]nc2c1c(=O)n(CCCN)c1cc(C(=O)NCCCN(C)C)ccc21 [Example 337] | < 1000 nM
Cc1[nH]nc2c1c(=O)n(CCCN)c1cc(C(=O)NCCCCN(C)C)ccc21 [Example 338] | < 1000 nM
Cc1[nH]nc2c1c(=O)n(CCCN)c1cc(I)ccc21 [Example 339, 5-(3-Aminopropyl)-7-iodo-3-methyl-2,5-dihydro-pyrazolo[4,3-c]quinolin4-one] | < 1000 nM
Cc1[nH]nc2c1c(=O)n(CCCN)c1cc(C#CCN3CCCC3)ccc21 [Example 340, 5-(3-Amino-propyl)-3-methyl-7-(3-pyrrolidin-1-yl-prop-1-ynyl)-2,5-dihydro-pyrazolo [4,3-c]quinolin-4-one] | < 1000 nM
Cc1[nH]nc2c1c(=O)n(CCCN)c1cc(CCCN3CCCC3)ccc21 [Example 341, 5-(3-Amino-propyl)-3-methyl-7-(3-pyrrolidin-1-yl-propyl)-2,5-dihydro-pyrazolo[4,3-c]quinolin-4-one] | < 1000 nM
COCCc1[nH]nc2c1c(=O)n(CCCN)c1ccc(C)cc21 [Example 354, 5-(3-Amino-propyl)-3-(2-methoxy-ethyl)-8-methyl-2,5-dihydro-pyrazolo[4,3-c]quinolin-4-one] | < 1000 nM
CCc1ccc2c(c1)c1n[nH]c(CCO)c1c(=O)n2CCCO [Example 363, 8-Ethyl-3-(2-hydroxy-ethyl)-5-(3-hydroxy-propyl)-2,5-dihydro-pyrazolo[4,3-c]quinolin-4-one] | < 1000 nM
CCCc1[nH]nc2c1c(=O)n(CCCN)c1ccc(Cl)cc21 [Example 364, 5-(3-Amino-propyl)-8-chloro-3-propyl-2,5-dihydro-pyrazolo[4,3-c]quinolin-4-one] | < 1000 nM
NCCCn1c(=O)c2c(C3CCCC3)[nH]nc2c2cc(Cl)ccc21 [Example 365, 5-(3-Amino-propyl)-8-chloro-3-cyclopentyl-2,5-dihydro-pyrazolo[4,3-c]quinolin4-one] | < 1000 nM
Cc1[nH]nc2c1c(=O)n(CCCN)c1cc(C(=O)NCCc3cccnc3)ccc21 [Example 366, 5-(3-Amino-propyl)-3-methyl-4-oxo-4,5-dihydro-2H-pyrazolo[4,3-c]quinoline-7-carboxylic acid (2-pyridin-3-yl-ethyl)-amide] | < 1000 nM

Results, then the molecule that gave them:

IC50 | SMILES
< 1000 nM | Cc1[nH]nc2c1c(=O)n(CCCN)c1ccc(CCCO)cc21 [Example 301, 5-(3-Amino-propyl)-8-(3-hydroxy-propyl)-3-methyl 2,5-dihydro-pyrazolo[4,3-c]quinolin-4-one]
< 1000 nM | COCCc1[nH]nc2c1c(=O)n(CCCN)c1ccc(C#CCN3CCCC3)cc21 [Example 305, 5-(3-Amino-propyl)-3-(2-methoxy-ethyl)-8-(3-pyrrolidin-1-yl-prop-1-ynyl)-2,5-dihydro-pyrazolo[4,3-c]quinolin-4-one]
< 1000 nM | Cc1[nH]nc2c1c(=O)n(CCCN)c1ccc(-c3cccnc3)cc21 [Example 308, 5-(3-Amino-propyl)-3-methyl-8-pyridin-3-yl-2,5-dihydro-pyrazolo[4,3-c]quinolin-4-one]
< 1000 nM | CCc1[nH]nc2c1c(=O)n(CCCN)c1ccc(Cl)cc21 [Example 311, 5-(3-Amino-propyl)-8-chloro-3-ethyl-2,5-dihydro-pyrazolo[4,3-c]quinolin-4-one hydrochloride]
< 1000 nM | CCOCCc1[nH]nc2c1c(=O)n(CCCN)c1ccc(Cl)cc21 [Example 320, 5-(3-Amino-propyl)-8-chloro-3-(2-ethoxy-ethyl)-2,5-dihydro-pyrazolo[4,3-c]quinolin-4-one]
< 1000 nM | NCCCn1c(=O)c2c(C3CCOC3)[nH]nc2c2cc(Cl)ccc21 (stereo not shown) [Example 327, 5-(3-Amino-propyl)-8-chloro-3-(tetrahydro-furan-3-yl)-2,5-dihydro-pyrazolo[4,3-c]quinolin-4-one]
< 1000 nM | NCCCn1c(=O)c2c(CCO)[nH]nc2c2cc(C#CCN3CCCC3)ccc21 [Example 328, 5-(3-Amino-propyl)-3-(2-hydroxy-ethyl)-8-(3-pyrrolidin-1-yl-prop-1-ynyl)-2,5-dihydro-pyrazolo [4,3-c]quinolin-4-one]
< 1000 nM | CCc1[nH]nc2c1c(=O)n(CCCN)c1ccc(C#CCN3CCCC3)cc21 [Example 329, 5-(3-Amino-propyl)-3-ethyl-8-(3-pyrrolidin-1-yl-prop-1-ynyl)-2,5-dihydro-pyrazolo[4,3-c]quinolin-4-one]
< 1000 nM | Cc1[nH]nc2c1c(=O)n(CCCN)c1cc(C(=O)NCCN(C)C)ccc21 [Example 335, 5-(3-Amino-propyl)-3-methyl-4-oxo-4,5-dihydro-2H-pyrazolo[4,3-c]quinoline-7-carboxylic acid (2-dimethylamino-ethyl)-amide]
< 1000 nM | Cc1[nH]nc2c1c(=O)n(C)c1c(C#CCN)cc(Cl)cc21 [Example 342, 6-(3-amino-prop-1-ynyl)-8-chloro-3,5-dimethyl-2,5-dihydro-pyrazolo[4,3-c]quinolin-4-one]
< 1000 nM | Cc1[nH]nc2c1c(=O)n(CCCN)c1ccc(C(=O)NCCN(C)C)cc21 [Example 352, 5-(3-Amino-propyl)-3-methyl-4-oxo-4,5-dihydro-2H-pyrazolo[4,3-c]quinoline-8-carboxylic acid (2-dimethylamino-ethyl)-amide]
< 1000 nM | Cc1[nH]nc2c1c(=O)n(CCCN)c1ccc(CCc3cccnc3)cc21 [Example 353, 5-(3-Amino-propyl)-3-methyl-8-(2-pyridin-3-yl-ethyl)-2,5-dihydro-pyrazolo[4,3-c]quinolin-4-one]
< 1000 nM | NCCCn1c(=O)c2c(CCOCc3ccccc3)[nH]nc2c2cc(Cl)ccc21 [Example 362, 5-(3-Amino-propyl)-3-(2-benzyloxy-ethyl)-8-chloro-2,5-dihydro-pyrazolo[4,3-c]quinolin-4-one]
